Assay results as given in patent US20090111759A1, “Synergistic Combination of Glutamate-and Gaba-Gated Chloride Agonist Pesticide and at Least One Vitamin E, Niacin, or Derivatives Thereof” (priority 2006, published 2009).

Columns and labels:
[1] = test system: Dysdercus cingulatus nymphs; experiment: Topical application of Abamectin/nicotinamide acetone solutions, LD50 (Example 7); type: in vivo; details: sum of Abamectin and nicotinamide; mortality recorded 48 h after applying
Experimental: A range of Abamectin solutions in acetone was prepared. Similarly, a range of nicotinamide solutions was prepared. Mixed solutions of Abamectin and nicotinamide in acetone were prepared as well. Nymphs of Dysdercus cingulatus were treated topically with either an Abamectin acetone solution (2 μl), a nicotinamide acetone solution (2 μl) or mixed solutions (2 μl).
The Dysdercus cingulatus mortality was recorded 48 h after applying the products. Log dose-mortality curves were constructed for the Abamectin, the nicotinamide and for the mixed solutions. The LD50 values reflect the sum of Abamectin and nicotinamide (active ingredients) present at LD50.
From the observed LD50 values for Abamectin and nicotinamide expected LD50 values for the mixtures were calculated according to Wadley's formula.

Spodoptera exigua larvae [2] = experiment: whole plant or invertebrate; details: read-out: Observed mortality (%)
Experimental: (§2) The efficacy of an Abamectin 18 g/l emulsifiable concentrate formulation (EC) was tested on Spodoptera exiqua larvae on Tradescani crassifolia leaves. The test on Spodoptera exigua was done as a dip-test where Tradescani crassifolia leaves were dipped in the various tests solutions and dried. Afterwards, each leaf was infested with 5 Spodoptera exigua larvae.
(§3) Besides testing the Abamectin 18 g/l EC formulation, Abamectin 18 g/l EC formulation was tested together with 4.5 g/l and 72 g/l nicotinamide. An EC formulation comprising nicotinamide was included in the test as well.

[3] = test system: Dysdercus cingulatus nymphs; type: in vivo; details: 2000 ng applied on each nymph; 24 h after applying
Experimental: A range of Abamectin solutions in acetone was prepared. Similarly, a range of tocopherol, all-rac alpha, solutions in acetone was prepared. Abamectin solution (2 μl), tocopherol solution (2 μl) or both were applied topically on nymphs of Dysdercus cingulatus. Abamectin was applied dorsally while tocopherol was applied ventrally. […] The mortality of the nymphs was recorded 24 h after applying the solutions.

[4] = test system: Dysdercus cingulatus nymphs; experiment: Topical application of Abamectin/tocopherol acetone solutions, LD50 (Example 5); type: in vivo; details: sum of Abamectin and tocopherol; mortality recorded 48 h after applying
Experimental: A range of Abamectin solutions in acetone was prepared. Similarly, a range of tocopherol, all-rac alpha, solutions was prepared. Mixed solutions of Abamectin and tocopherol in acetone were prepared as well. Nymphs of Dysdercus cingulatus were treated topically with either an Abamectin acetone solution (2 μl), a tocopherol acetone solution (2 μl) or mixed solutions (2 μl). The Dysdercus cingulatus mortality was recorded 48 h after applying the products.
Log dose-mortality curves were constructed for the Abamectin and the tocopherol treatments. LD50 values based on the sum of Abamectin and tocopherol contents (ng active ingredient(s) per nymph) were calculated.
From the observed LD50 values for Abamectin and tocopherol expected LD50 values for the mixtures were calculated according to Wadley's formula.

[5] = test system: Dysdercus cingulatus nymphs; type: in vivo; details: in total 20,000 ng/nymph applied dorsally; two replicates of ten nymphs
Experimental: Abamectin, Ivermectin and tocopherol solutions in acetone were prepared. Mixed solutions of either Abamectin or Ivermectin and tocopherol were also prepared. Nymphs of Dysdercus cingulatus were treated topically with Abamectin acetone solution (20,000 ng/nymph), Ivermectin acetone solution (20,000 ng/nymph), a tocopherol acetone solution (20,000 ng/nymph) or a solution containing Abamectin and tocopherol or Ivermectin and tocopherol in the ratio 1:3 (20,000 ng total/nymph). The solutions were applied dorsally on the nymphs.
The Dysdercus cingulatus mortality was followed over time and recorded. Log time-mortality curves were constructed for the Abamectin and Ivermectin solutions and for the mixtures with tocopherol. An LT50 value was calculated for each application.

Spodoptera exigua larvae [6] = details: single ingredient, 10 ppm in tests solution
Experimental: as §2, §3

Tetranychus urticae = experiment: Spray test of Spinosad and tocopheryl acetate on bean plants (Vicia faba), leaf protection (Example 13); type: in vivo; details: single active, leaf protection 7 days after mites placed, average of four evaluations
From the text: Using the alternative method for determining synergism the effect of each mixture of Spinosad and tocopheryl acetate is compared with the effect of the same rate of each of the active ingredients used alone.

Haemonchus contortus = experiment: Larvae feeding inhibition study (Example 23); details: tested alone, in the tested dose range
From the text: (§1) The calculations done according to Wadley and shown in Table 23 indicate that synergistic action of Ivermectin and tocopheryl acetate and Doramectin and tocopheryl acetate was pre-sent in the larvae feed inhibition study. The synergistic action of Ivermectin and tocepheryl acetate in the H. contortus experiment is of particular interest because the H. contortus iso-late used was Ivermectin resistant.

[7] = test system: Teladorsagia (Ostertagia) circumcincta; experiment: Larvae feeding inhibition study (Example 23); details: tested alone, in the tested dose range
From the text: as §1

[8] = test system: Trichostrongylus colubriformis; experiment: Larvae feeding inhibition study (Example 23); details: tested alone, in the tested dose range
From the text: as §1

[9] = test system: adult sea lice (Lepeophtheirus salmonis); details: tested alone at various concentrations
Experimental: Eur. 5th Ed was studied on adult sea lice (Lepeophtheirus salmonis), a fish parasite, in seawater in Petri dishes. Emamectin benzoate and tocopheryl aceate were tested at various concentrations. In addition, mixtures of Emamectin benzoate and tocopheryl aceate, ratio 1:10 based on weight, were tested as well.

[10] = test system: cat fleas (Ctenocephalides felis felis) larvae; experiment: In vitro contact test on flea larvae (Example 25); details: tested alone
[11] = test system: cat fleas (Ctenocephalides felis felis) adult; experiment: In vitro contact test on adult fleas (Example 25); details: tested alone
[12] = test system: cat fleas (Ctenocephalides felis felis) larvae; experiment: In vitro larvae test based on systemic activity (Example 25); details: tested alone
[13] = test system: Onchocerca lienalis microfilariae; experiment: Microfilariae mobility test (Example 26); details: alone, in the concentration range tested
[14] = test system: larvae of Lucilia cuprina (sheep blowfly)
From the text: A mixture of Spinosad and tocopheryl acetate, all-rac alpha, Ph.

Molecule | LD50obs [1] | mortality at 10 ppm (Spodoptera exigua larvae [2]) | % Mortality for each ingredient [3] | LD50obs [4] | LT50 [5] | Observed mortality (%) (Spodoptera exigua larvae [6]) | % protection (Tetranychus urticae; 100 g/ha) | % protection (Tetranychus urticae; 300 g/ha) | feeding inhibition activity (Haemonchus contortus) | feeding inhibition activity [7] | feeding inhibition activity [8] | activity in its own right [9] | activity in its own right [10] | activity in its own right [11] | activity in its own right [12] | effect on mobility of the microfilaria [13] | activity on the larvae [14]
NC(=O)c1cccnc1 [nicotinamide] | >20,000 ng AI(s) per nymph | 0% | – | – | – | – | – | – | – | – | – | – | – | – | – | – | –
Abamectin | 126 ng AI(s) per nymph | – | 74% | 1595 ng AI(s) per nymph | 5.3 h | 10% | – | – | – | – | – | – | – | – | – | – | –
CC(=O)Oc1c(C)c(C)c2c(c1C)CCC(C)(CCC[C@H](C)CCC[C@H](C)CCCC(C)C)O2 (mixture of isomers) [tocopheryl acetate] | – | – | – | – | – | – | 15% | 8.8% | did not have any feeding inhibition activity | did not have any feeding inhibition activity | did not have any feeding inhibition activity | did not have any activity | did not have any activity | did not have any activity | did not have any activity | did not affect the mobility | no activity
